Assay results reported in patent US10336716B2, “Thermodynamically stable crystal modification of 2-methyl-N-(5-methyl-1, 3, 4-oxadiazol-2-yl)-3-(methylsulfonyl)-4-(trifluoromethyl)benzamide” (Bayer CropScience Aktiengesellschaft, priority 2015, dated 2019).

Experiments:
Type in all cases: physicochemical
[1] = wettability on mixing with water (first comparative experiment)
Text: Moreover, the benzamide obtainable according to the disclosure of WO 2012/126932 A1 has the disadvantage that it can be less readily worked up, filtered, purified and wetted with solvents. […] These disadvantages are overcome by the provision of the thermodynamically stable benzamide according to the invention.

[2] = testing in practice of suspension formulations; conditions: suspension formulation, benzamide finely ground in solid form
Text: The benzamide known for example from WO 2012/126932 A1 (example No. 2-145 in table 2 therein) has herbicidal properties and is suitable for the production of crop protection compositions which can be employed for weed control. However, it has been shown that the benzamide obtainable according to the disclosure of WO 2012/126932 A1 is not suitable for the preparation of user-friendly administration forms. User-friendly administration forms are, for example, suspension formulations in which the benzamide is present finely ground in solid form. […] The crystal growth can occur spontaneously or over a longer period and cannot be predicted.

[3] = stability test: storage of oil dispersion; conditions: after several weeks of storage

wettability with solvents (in words) ([1]; solvents such as water and aqueous solvents) | clumping and precipitation of oil dispersion on storage [3] | wettability ([1]; after 1 minute on mixing with water) [%] | SMILES | crystal growth in suspension formulations [2]
poorer wettability | – | – | Cc1nnc(NC(=O)c2ccc(C(F)(F)F)c(S(C)(=O)=O)c2C)o1 [2-methyl-N-(5-methyl-1,3,4-oxadiazol-2-yl)-3-(methylsulfonyl)-4-(trifluoromethyl)benzamide] | leads to crystal growth in suspension formulations and consequently to clumping and precipitation
– | no signs of clumping and precipitation | 100 | Cc1nnc(NC(=O)c2ccc(C(F)(F)F)c(S(C)(=O)=O)c2C)o1 [crystal modification A, 2-methyl-N-(5-methyl-1,3,4-oxadiazol-2-yl)-3-(methylsulfonyl)-4-(trifluoromethyl)benzamide] | –
